The record followed here is patent publication US6020342A, “Fused imidazo[1,2-A]pyridines” (Shinnippon Pharmaceutical, Inc., priority 1995, dated 2000).

What is called IC50 is the midpoint of a concentration-inhibition curve.

Each structure is given as a SMILES string.

T1 sequence (P19156 2-1034 limits assumed): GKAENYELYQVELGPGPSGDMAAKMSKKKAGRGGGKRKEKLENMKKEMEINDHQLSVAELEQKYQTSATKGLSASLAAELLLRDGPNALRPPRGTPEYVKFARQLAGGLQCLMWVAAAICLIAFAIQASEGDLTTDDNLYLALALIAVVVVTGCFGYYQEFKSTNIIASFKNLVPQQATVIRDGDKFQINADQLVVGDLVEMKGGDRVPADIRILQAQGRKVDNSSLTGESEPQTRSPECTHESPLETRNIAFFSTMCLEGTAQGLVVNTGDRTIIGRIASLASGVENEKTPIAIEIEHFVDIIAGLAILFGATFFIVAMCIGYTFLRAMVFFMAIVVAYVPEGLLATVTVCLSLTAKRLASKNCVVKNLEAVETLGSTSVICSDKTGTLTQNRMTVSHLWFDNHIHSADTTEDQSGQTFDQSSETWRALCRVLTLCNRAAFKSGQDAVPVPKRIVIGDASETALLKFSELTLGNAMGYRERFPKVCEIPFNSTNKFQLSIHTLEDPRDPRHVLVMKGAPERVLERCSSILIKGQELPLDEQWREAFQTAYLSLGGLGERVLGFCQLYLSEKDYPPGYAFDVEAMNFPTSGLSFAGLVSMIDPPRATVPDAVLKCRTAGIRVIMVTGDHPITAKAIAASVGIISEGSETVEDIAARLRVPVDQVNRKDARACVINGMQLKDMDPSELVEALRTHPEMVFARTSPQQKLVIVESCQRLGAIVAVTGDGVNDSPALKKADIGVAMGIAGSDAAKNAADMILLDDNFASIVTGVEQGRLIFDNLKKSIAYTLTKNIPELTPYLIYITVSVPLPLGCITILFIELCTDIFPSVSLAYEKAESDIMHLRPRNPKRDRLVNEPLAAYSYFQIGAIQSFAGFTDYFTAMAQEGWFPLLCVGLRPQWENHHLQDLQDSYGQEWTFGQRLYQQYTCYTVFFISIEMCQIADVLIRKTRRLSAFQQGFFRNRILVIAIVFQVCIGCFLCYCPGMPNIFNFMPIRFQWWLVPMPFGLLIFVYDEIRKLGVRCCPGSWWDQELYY
T1 sequence (P18434 whole entry partner): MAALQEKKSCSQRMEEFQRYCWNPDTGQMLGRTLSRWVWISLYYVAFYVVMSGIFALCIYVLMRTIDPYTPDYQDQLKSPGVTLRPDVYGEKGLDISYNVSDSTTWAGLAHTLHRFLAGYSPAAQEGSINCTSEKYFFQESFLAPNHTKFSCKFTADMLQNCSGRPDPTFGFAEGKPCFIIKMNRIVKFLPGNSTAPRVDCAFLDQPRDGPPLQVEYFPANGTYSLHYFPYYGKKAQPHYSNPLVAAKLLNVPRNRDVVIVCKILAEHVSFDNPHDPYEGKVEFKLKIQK

This assay addresses T1, H^+ /K^+ -ATPase (Sus scrofa, UniProt P19156).
T1 construct: a microsome fraction prepared from porcine gastric mucosa was used as a standard enzyme; from tissue; host or cells: porcine gastric mucosa, microsome fraction
Put plainly: Inhibitory Action on H^+ /K^+ -ATPase Activity. To be noted: microsome fraction from porcine gastric mucosa, pH7.4, 37° C., 30 min preincubation, 15 min reaction. Format: biochemical. The method, then: Inhibitory Action on H^+ /K^+ -ATPase Activity
According to the method of Hongo et al. [The Japanese Journal of Pharmacology, 52, p295, (1990)], a microsome fraction prepared from porcine gastric mucosa was used as a standard enzyme. The standard enzyme (10-20lig protein) and the test compound (0.1-100 μM) dissolved in dimethylsulfoxide was incubated at 37° C. for 30 minutes in the 50 mM Tris-acetate buffer (pH7.4, containing 2 mM magnesium chloride, 5 mM potassium chloride). The enzyme reaction was started by adding adenosinetriphosphate (ATP). Tris at the final concentration of 2 mM, and the reaction was kept at 37° C. for 15 minutes. The reaction was stopped by adding chilled 10% trichloroacetic acid. Inorganic phosphate released during the reaction was calorimetrically determined according to the method of Fiske-Subbarow [The Journal of Biological Chemistry, 66, p375, (1925)]. H^+ /K^+ -ATPase activity was determined by the difference of the enzyme activities under the conditions with or without potassium chloride. The inhibitory activities of test compounds were determined as the 50% inhibitory concentration (IC50 value) from reaction-concentration curve, and the results are shown in Table 3.
On to `Cc1ccccc1-c1nc2c3ccccc3c(CCC(C)C)cn2c1N` [Compound 15, 3-Amino-6-isopentyl-2-(2-methylphenyl)imidazo[2,1-a]isoquinoline], for which half-maximal inhibition (IC50) required 3.7 µM.

The compound `COc1ccc(-c2cn3c(N)c(-c4ccccc4C)nc3c3ccccc23)cc1` [Compound 21, 3-Amino-6-(4-methoxyphenyl)-2-(2-methylphenyl)imidazo[2,1-a]isoquinoline] had a 50% inhibitory concentration (IC50) of 7.4 µM.

Regarding `Cc1ccccc1-c1nc2c3cc(O)ccc3ccn2c1N` [Compound 22, 3-Amino-9-hydroxy-2-(2-methylphenyl)imidazo[2,1-a]isoquinoline], 1.9 µM corresponded to half-maximal inhibition (IC50).

Turning to `Cc1ccccc1-c1nc2c3ccccc3c(OCc3ccccc3)cn2c1N` [Compound 38, 3-Amino-6-benzyloxy-2-(2-methylphenyl)imidazo[2,1-a]isoquinoline], the IC50 came out at 4.8 µM.

With `CCN(CC)c1cccc2c1ccn1c(N)c(-c3ccccc3C)nc21` [Compound 54, 3-Amino-7-diethylamino-2-(2-methylphenyl)imidazo[2,1-a]isoquinoline], the half-maximal inhibitory concentration (IC50) came out at 1 µM.

`Cc1cc(-c2nc3c4ccccc4ccn3c2N)c(C)s1` [Compound 83, 3-Amino-2-(2,5-dimethyl-3-thienyl)imidazo[2,1-a]isoquinoline]: half-maximal inhibition (IC50) required 5.6 µM.

For the compound `Cc1ccccc1-c1nc2n(c1N)C(C)(C)Cc1ccccc1-2` [Compound 104, 3-Amino-5,5-dimethyl-2-(2-methylphenyl)-5,6-dihydroimidazo[2,1-a]isoquinoline], inhibition was half-maximal at 12 µM (IC50).

`Cc1cc(O)ccc1-c1nc2n(c1N)CCc1ccccc1-2` [Compound 107, 3-Amino-2-(4-hydroxy-2-methylphenyl)-5,6-dihydroimidazo[2,1-a]isoquinoline] gave an IC50 of 33 µM.

Regarding `CC(=O)N(Cc1ccc(C)cc1)c1c(-c2ccccc2C)nc2c3ccccc3ccn12` [Compound 151, 3-[N-Acetyl-N-(4-methylbenzyl)amino]-2-(2-methylphenyl)imidazo[2,1-a]isoquinoline], half-maximal inhibition (IC50) was put at 7.8 µM.

Regarding `CCCc1cccc2c1ccn1c(NCC)c(-c3ccccc3C)nc21` [Compound 163, 3-Ethylamino-2-(2-methylphenyl)-7-propylimidazo[2,1-a]isoquinoline], the concentration for half-maximal inhibition (IC50) came out at 4.6 µM.

`CCNc1c(-c2ccccc2C)nc2c3cccc(OCc4ccccc4)c3ccn12` [Compound 169, 7-Benzyloxy-3-ethylamino-2-(2-methylphenyl)imidazo[2,1-a]isoquinoline]: half-maximal inhibition (IC50) was put at 5.8 µM.

`Cc1ccc(-c2nc3c4ccccc4ccn3c2NCCC(C)C)c(C)c1` [Compound 189, 3-Isopentylamino-2-(2,4-dimethylphenyl)imidazo[2,1-a]isoquinoline] had an IC50 of 6.8 µM.

Compound `CCCCCCNc1c(-c2ccccc2C)nc2c3ccccc3ccn12` [Compound 191, 3-Hexylamino-2-(2-methylphenyl)imidazo[2,1-a]isoquinoline] gave a half-inhibitory concentration (IC50) of 5.2 µM.

For the compound `Cc1ccccc1-c1nc2c3ccccc3ccn2c1NC(C)c1ccccc1` (stereo not drawn) [Compound 192, 2-(2-Methylphenyl)-3-[(1-phenylethyl)amino]imidazo[2,1-a]isoquinoline], 4.4 µM corresponded to half-maximal inhibition (IC50).

With `Cc1ccccc1-c1nc2c3ccccc3ccn2c1NCc1ccc2ccccc2c1Br` [Compound 195], the concentration for half-maximal inhibition (IC50) is 8.8 µM.

Take `CCN(CC)c1c(-c2ccccc2C)nc2c3cccc(Br)c3ccn12` [Compound 200, 7-Bromo-3-diethylamino-2-(2-methylphenyl)imidazo[2,1-a]isoquinoline]: the IC50 is 1.2 µM.

Regarding `CCN(CCCl)c1c(-c2ccccc2C)nc2c3ccccc3ccn12` [Compound 202, 3-[N-(2-Chloroethyl)-N-ethylamino]-2-(2-methylphenyl)imidazo[2,1-a]isoquinoline], the IC50 was 9.8 µM.

The compound `CCCN(CC)c1c(-c2ccccc2F)nc2c3ccccc3ccn12` [Compound 206, 3-(N-Ethyl-N-propylamino)-2-(2-fluorophenyl)imidazo[2,1-a]isoquinoline] displayed an IC50 of 2.3 µM.
